Measurements taken from patent US20180077929A1, “METHODS AND SYSTEMS FOR TREATING MEDICAL DEVICES AND FLUIDS” (priority 2016, published 2018).
Marks after values point to notes of the source that are not given here.

Test: Kinetics of removal of LPS with different agitation techniques and stearate salts
Type: biochemical
Details: for Endotoxin Detected: 5 mL SRW, baseline 1,502 EU; for Percent (%) Removed: SRW baseline 1,502 EU
Protocol: 5 mL of SRW was added to each of the tubes. Each solution was tested for endotoxin removal after agitation based on with sonication, vortexing, or test tube rolling. Sonication samples were sonicated at each indicated time interval for 30 seconds at a magnitude of 30. Vortex samples were vortexed at each indicated time interval for 30 seconds at 2500 RPM. Rolling samples were constantly rolling at 10 rpm. The samples were tested on the MCS for endotoxin at 1 minute, 20 minutes, 40 minutes, 60 minutes, and 80 minutes.

Row | Compound | Endotoxin Detected (Rolling, 1 minute) | Percent (%) Removed (Rolling, 1 minute) [%] | Endotoxin Detected (Rolling, 20 minutes) | Percent (%) Removed (Rolling, 20 minutes) [%] | Endotoxin Detected (Rolling, 40 minutes) | Percent (%) Removed (Rolling, 40 minutes) [%] | Endotoxin Detected (Rolling, 60 minutes) | Percent (%) Removed (Rolling, 60 minutes) [%] | Endotoxin Detected (Rolling, 80 minutes) | Percent (%) Removed (Rolling, 80 minutes) [%] | Endotoxin Detected (Sonication, 1 minute) [EU] | Percent (%) Removed (Sonication, 1 minute) [%] | Endotoxin Detected (Sonication, 20 minutes) [EU] | Percent (%) Removed (Sonication, 20 minutes) [%] | Endotoxin Detected (Sonication, 40 minutes) [EU] | Percent (%) Removed (Sonication, 40 minutes) [%] | Endotoxin Detected (Sonication, 60 minutes) [EU] | Percent (%) Removed (Sonication, 60 minutes) [%] | Endotoxin Detected (Sonication, 80 minutes) [EU] | Percent (%) Removed (Sonication, 80 minutes) [%] | further results
1 | CCCCCCCCCCCCCCCCCC(=O)[O-].[Al+3].[OH-].[OH-] [Aluminum Monostearate] | 221* EU | 85.3 | 1,260 EU | 16.1 | 1,240 EU | 17.4 | 672 EU | 55.3 | 1,220 EU | 18.8 | 626 | 58.3 | 406 | 73 | 375 | 75 | 434 | 71.1 | 291 | 80.6 | Endotoxin Detected (Vortexing, 1 minute): 817 EU; Percent (%) Removed (Vortexing, 1 minute): 45.6%; Endotoxin Detected (Vortexing, 20 minutes): 849 EU; Percent (%) Removed (Vortexing, 20 minutes): 43.5%; Endotoxin Detected (Vortexing, 40 minutes): 786 EU; Percent (%) Removed (Vortexing, 40 minutes): 47.7%; Endotoxin Detected (Vortexing, 60 minutes): 801 EU; Percent (%) Removed (Vortexing, 60 minutes): 46.7%; Endotoxin Detected (Vortexing, 80 minutes): 757 EU; Percent (%) Removed (Vortexing, 80 minutes): 49.6%
2 | Magnesium Stearate | 1,060 EU | 29.4 | 1,120 EU | 25.4 | 1,060 EU | 29.4 | 1,120 EU | 25.4 | 1,190 EU | 20.8 | 743 | 50.5 | 716 | 52.3 | 824 | 45.1 | 884 | 41.1 | 703 | 53.2 | Endotoxin Detected (Vortexing, 1 minute): 884 EU; Percent (%) Removed (Vortexing, 1 minute): 41.1%; Endotoxin Detected (Vortexing, 20 minutes): 1,000 EU; Percent (%) Removed (Vortexing, 20 minutes): 33.4%; Endotoxin Detected (Vortexing, 40 minutes): 901 EU; Percent (%) Removed (Vortexing, 40 minutes): 40%; Endotoxin Detected (Vortexing, 60 minutes): 958 EU; Percent (%) Removed (Vortexing, 60 minutes): 36.2%; Endotoxin Detected (Vortexing, 80 minutes): 1,060 EU; Percent (%) Removed (Vortexing, 80 minutes): 29.4%
